According to patent US11192867B2, “Microbiocidal oxadiazole derivatives” (SYNGENTA PARTICIPATIONS AG, priority 2016, dated 2021):

Legend:
[1] = test system: Glomerella lagenarium (Colletotrichum lagenarium); test: Fungicidal activity against Glomerella lagenarium (Colletotrichum lagenarium) liquid culture / cucumber / preventative (anthracnose); type: cell-based; conditions: Colletotrichum orbiculare, 72 h; 20 ppm in the applied formulation; liquid culture (PDB), growth inhibition measured photometrically 3 to 4 days after application; vs untreated control; read-out: disease control
Method in brief: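 PDB broth seeded with cryo-stored conidia, added onto compound (DMSO solution) in 96-well plates; 24° C.; photometric growth read at 3–4 d post-application; % inhibition vs untreated check.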

[2] = test system: Puccinia recondita f. sp. Tritici; test: Fungicidal activity against Puccinia recondita f. sp. Tritici / wheat / leaf disc preventative (brown rust); type: in vivo; conditions: foliar, 200 ppm in the applied formulation, wheat leaf segments cv. Kanzler, inoculated 1 day after application, vs untreated control, read-out: disease control
Method in brief: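 Single evaluation 7–9 d after spraying: % disease control compared with untreated leaf segments. Protocol: cv. Kanzler segments, preventative spray at 200 ppm, spore inoculation at day 1, 19° C., 75% rh, 12 h light/12 h dark.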

Phakopsora pachyrhizi = test: Fungicidal activity against Phakopsora pachyrhizi / soybean / leaf disc preventative (Asian soybean rust); type: in vivo; conditions: foliar, 200 ppm in the applied formulation, soybean leaf disks, vs untreated control, read-out: disease control
Method in brief: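 Preventative test: compound sprayed onto soybean leaf discs one day before spore inoculation of the lower leaf face. Incubation at 20 °C and 75% rh, first 24-36 h in darkness, then a 12 h light cycle. Disease control versus untreated discs read 12-14 days after application.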

[3] = test system: Puccinia recondita f. sp. Tritici; test: Fungicidal activity against Puccinia recondita f. sp. Tritici / wheat / leaf disc curative (brown rust); type: in vivo; conditions: foliar, 24 h, 200 ppm in the applied formulation, wheat leaf segments cv. Kanzler, applied 1 day after inoculation, vs untreated control, read-out: disease control
Method: Leaf disks or leaf segments of various plant species are cut from plants grown in a greenhouse. The cut leaf disks or segments are placed in multiwell plates (24-well format) onto water agar. The leaf disks are sprayed with a test solution before (preventative) or after (curative) inoculation. Compounds to be tested are prepared as DMSO solutions (max. 10 mg/ml) which are diluted to the appropriate concentration with 0.025% Tween20 just before spraying. The inoculated leaf disks or segments are incubated under defined conditions (temperature, relative humidity, light, etc.) according to the respective test system. A single evaluation of disease level is carried out 3 to 14 days after inoculation, depending on the pathosystem. Percent disease control relative to the untreated check leaf disks or segments is then calculated.
Wheat leaf segments cv. Kanzler are placed on agar in multiwell plates (24-well format). The leaf segments are then inoculated with a spore suspension of the fungus. Plates were stored in darkness at 19° C. and 75% relative humidity. The formulated test compound diluted in water was applied 1 day after inoculation. The leaf segments were incubated at 19° C. and 75% relative humidity under a light regime of 12 hours light/12 hours darkness in a climate cabinet and the activity of a compound was assessed as percent disease control compared to untreated when an appropriate level of disease damage appears in untreated check leaf segments (6 to 8 days after application).
The following compounds at 200 ppm in the applied formulation give at least 80% disease control in this test when compared to untreated control leaf disks under the same conditions, which show extensive disease development.

NCCON=CCNC(=O)c1ccc(-c2noc(C(F)(F)F)n2)cc1 [Compound 1.66, N-[2-(2-aminoethoxy-imino)ethyl]-4-[5-(trifluoromethyl)-1,2,4-oxadiazol-3-yl]benzamide]
≥ 80%: inhibition of growth at 20 ppm [1] | pest or weed control at 200 ppm [2] | pest or weed control at 200 ppm (Phakopsora pachyrhizi) | pest or weed control at 200 ppm [3]

CC(C)ON=CCNC(=O)c1ccc(-c2noc(C(F)(F)F)n2)cc1 [Compound 1.94, N-(2-isopropoxyimino-ethyl)-4-[5-(trifluoromethyl)-1,2,4-oxadiazol-3-yl]benzamide]
≥ 80%: inhibition of growth at 20 ppm [1] | pest or weed control at 200 ppm [2] | pest or weed control at 200 ppm (Phakopsora pachyrhizi) | pest or weed control at 200 ppm [3]

C=C(Cl)CON=CCNC(=O)c1ccc(-c2noc(C(F)(F)F)n2)cc1 [Compound 1.100, N-[2-(2-chloroallyloxy-imino)ethyl]-4-[5-(trifluoromethyl)-1,2,4-oxadiazol-3-yl]benzamide]
≥ 80%: inhibition of growth at 20 ppm [1] | pest or weed control at 200 ppm [2] | pest or weed control at 200 ppm (Phakopsora pachyrhizi) | pest or weed control at 200 ppm [3]

O=C(NCC=NOC1CCCCO1)c1ccc(-c2noc(C(F)(F)F)n2)cc1 (centres unmarked) [Compound 1.70, N-(2-tetrahydropyran-2-yloxyiminoethyl)-4-[5-(trifluoromethyl)-1,2,4-oxadiazol-3-yl]benzamide]
≥ 80%: inhibition of growth at 20 ppm [1] | pest or weed control at 200 ppm [2] | pest or weed control at 200 ppm (Phakopsora pachyrhizi) | pest or weed control at 200 ppm [3]

CC(ON=CCNC(=O)c1ccc(-c2noc(C(F)(F)F)n2)cc1)C(=O)O (centres unmarked) [Compound 1.82, 2-[2-[[4-[5-(trifluoromethyl)-1,2,4-oxadiazol-3-yl]benzoyl]amino]ethylideneamino] oxypropanoic acid]
≥ 80%: inhibition of growth at 20 ppm [1] | pest or weed control at 200 ppm [2] | pest or weed control at 200 ppm (Phakopsora pachyrhizi) | pest or weed control at 200 ppm [3]

CC(C=NOC/C=C\Cl)NC(=O)c1ccc(-c2noc(C(F)(F)F)n2)cc1 (centres unmarked) [Compound 1.36, N-[2-[(Z)-3-chloroallyloxy]imino-1-methyl-ethyl]-4-[5-(trifluoromethyl)-1,2,4-oxadiazol-3-yl]benzamide]
≥ 80%: inhibition of growth at 20 ppm [1] | pest or weed control at 200 ppm [2] | pest or weed control at 200 ppm (Phakopsora pachyrhizi) | pest or weed control at 200 ppm [3]

O=C(NCC=NOCC=CCl)c1ccc(-c2noc(C(F)(F)F)n2)cc1 [Compound 1.78, N-[2-(3-chloroallyloxyimino)ethyl]-4-[5-(trifluoromethyl)-1,2,4-oxadiazol-3-yl]benzamide]
≥ 80%: inhibition of growth at 20 ppm [1] | pest or weed control at 200 ppm [2] | pest or weed control at 200 ppm (Phakopsora pachyrhizi) | pest or weed control at 200 ppm [3]

CC(CNC(=O)c1ccc(-c2noc(C(F)(F)F)n2)cc1)=NOCC1CC1 [Compound 1.145, N-[2-(cyclopropyl-methoxyimino)propyl]-4-[5-(trifluoromethyl)-1,2,4-oxadiazol-3-yl]benzamide]
≥ 80%: inhibition of growth at 20 ppm [1] | pest or weed control at 200 ppm [2] | pest or weed control at 200 ppm (Phakopsora pachyrhizi) | pest or weed control at 200 ppm [3]

CC(CNC(=O)c1ccc(-c2noc(C(F)(F)F)n2)cc1)=NOC(C)C [Compound 1.138, N-(2-isopropoxyimino-propyl)-4-[5-(trifluoromethyl)-1,2,4-oxadiazol-3-yl]benzamide]
≥ 80%: inhibition of growth at 20 ppm [1] | pest or weed control at 200 ppm [2] | pest or weed control at 200 ppm (Phakopsora pachyrhizi) | pest or weed control at 200 ppm [3]

CO/N=C\NC(=O)c1ccc(-c2noc(C(F)(F)F)n2)cc1 [Compound 1.5, N-[(Z)-methoxyiminomethyl]-4-[5-(trifluoromethyl)-1,2,4-oxadiazol-3-yl]benzamide]
≥ 80%: inhibition of growth at 20 ppm [1] | pest or weed control at 200 ppm [2] | pest or weed control at 200 ppm (Phakopsora pachyrhizi) | pest or weed control at 200 ppm [3]

O=C(NCC=NOCCO)c1ccc(-c2noc(C(F)(F)F)n2)cc1 [Compound 1.60, N-[2-(2-hydroxyethoxy-imino)ethyl]-4-[5-(trifluoromethyl)-1,2,4-oxadiazol-3-yl]benzamide]
≥ 80%: inhibition of growth at 20 ppm [1] | pest or weed control at 200 ppm [2] | pest or weed control at 200 ppm (Phakopsora pachyrhizi) | pest or weed control at 200 ppm [3]
